Results reported in ChEMBL document CHEMBL1201862, “PubChem BioAssay data set” (2004).
Activity calls are given as the source filed them.

Tests used:
Cytochrome P450 2C19 = Cytochrome P450 2C19 (Homo sapiens, UniProt P33261); experiment: Cytochrome panel assay with activity outcomes. Panel member name: p450-cyp2c19 Compounds with AC50 equal or less than 10 uM are considered active; type: functional; conditions: read-out: AC50
Cytochrome P450 1A2 = target: T1, Cytochrome P450 1A2 (Homo sapiens, UniProt P05177);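 also: PubChem cytochrome P450 panel assay, CYP1A2 panel member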
T1 sequence (P05177 whole entry): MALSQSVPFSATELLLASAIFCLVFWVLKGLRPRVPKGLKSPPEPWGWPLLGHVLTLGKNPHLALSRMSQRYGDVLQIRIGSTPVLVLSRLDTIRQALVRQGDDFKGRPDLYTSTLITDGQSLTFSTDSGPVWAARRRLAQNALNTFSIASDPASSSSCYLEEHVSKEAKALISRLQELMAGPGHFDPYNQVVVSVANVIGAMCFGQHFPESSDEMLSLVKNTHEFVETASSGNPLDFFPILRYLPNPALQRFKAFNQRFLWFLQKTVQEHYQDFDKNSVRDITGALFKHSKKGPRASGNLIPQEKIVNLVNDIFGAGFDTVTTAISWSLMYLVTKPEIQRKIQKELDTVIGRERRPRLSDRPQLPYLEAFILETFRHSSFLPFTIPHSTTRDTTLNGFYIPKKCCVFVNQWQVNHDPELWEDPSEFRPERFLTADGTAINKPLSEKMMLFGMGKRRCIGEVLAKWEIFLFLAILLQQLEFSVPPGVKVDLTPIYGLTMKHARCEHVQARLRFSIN

[1] = target: T2, Heat shock factor protein 1 (Mus musculus, UniProt P38532); experiment: enhancement of HSF1-driven luciferase signal – cell-based, NIH3T3, luminescence, dose retest, confirmation (AID 435004); type: functional;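 also: stress induced by proteasome inhibitor MG132 added 30 min after compound; luciferase reporter driven by HSF1 response element in NIH3T3 cells; actives raise luminescence as potentiators of the MG132 stress response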
T2 sequence (P38532 whole entry): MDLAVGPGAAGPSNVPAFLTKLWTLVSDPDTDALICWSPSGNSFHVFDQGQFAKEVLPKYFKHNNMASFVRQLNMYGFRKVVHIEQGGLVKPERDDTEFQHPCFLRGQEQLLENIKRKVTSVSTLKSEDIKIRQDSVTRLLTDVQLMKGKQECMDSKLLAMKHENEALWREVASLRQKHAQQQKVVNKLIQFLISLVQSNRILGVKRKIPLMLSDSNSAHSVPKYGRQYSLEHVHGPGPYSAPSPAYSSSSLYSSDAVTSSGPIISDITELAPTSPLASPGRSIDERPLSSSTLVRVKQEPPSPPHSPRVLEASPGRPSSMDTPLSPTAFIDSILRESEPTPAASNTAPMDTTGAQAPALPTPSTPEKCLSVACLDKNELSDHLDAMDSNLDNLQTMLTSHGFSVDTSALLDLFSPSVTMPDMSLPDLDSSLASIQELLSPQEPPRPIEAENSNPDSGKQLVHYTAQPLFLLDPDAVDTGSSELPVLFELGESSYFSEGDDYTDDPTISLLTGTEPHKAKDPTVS

[2] = target: T3, Rac GTPase-activating protein 1 (Homo sapiens, UniProt Q9H0H5); experiment: blockers of MgcRacGAP-driven Rac1 GTP hydrolysis – biochemical, ADP Hunter fluorescence, primary and confirmatory, confirmation (AID 624330); type: functional
T3 sequence (Q9H0H5 whole entry): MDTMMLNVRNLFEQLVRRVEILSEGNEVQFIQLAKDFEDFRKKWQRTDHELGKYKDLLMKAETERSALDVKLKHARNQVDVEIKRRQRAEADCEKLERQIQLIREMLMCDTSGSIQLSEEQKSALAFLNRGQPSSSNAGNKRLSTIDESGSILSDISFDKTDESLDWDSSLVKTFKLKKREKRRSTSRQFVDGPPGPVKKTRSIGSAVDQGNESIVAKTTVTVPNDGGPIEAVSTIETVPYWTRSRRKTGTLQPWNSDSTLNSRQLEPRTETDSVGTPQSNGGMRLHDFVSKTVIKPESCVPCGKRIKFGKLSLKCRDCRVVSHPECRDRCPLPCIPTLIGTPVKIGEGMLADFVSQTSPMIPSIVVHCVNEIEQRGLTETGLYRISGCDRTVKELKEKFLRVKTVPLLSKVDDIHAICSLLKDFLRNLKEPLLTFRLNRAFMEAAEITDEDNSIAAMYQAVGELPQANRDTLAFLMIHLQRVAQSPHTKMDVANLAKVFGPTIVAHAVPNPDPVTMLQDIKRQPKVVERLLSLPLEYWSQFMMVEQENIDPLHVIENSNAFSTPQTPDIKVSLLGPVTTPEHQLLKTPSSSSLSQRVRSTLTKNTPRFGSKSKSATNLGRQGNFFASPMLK

INS1 = experiment: INS-1E survival protection against cytokine death – cell-based, luminescence, retest, dose response (AID 449756); type: functional; conditions: Rattus norvegicus;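 also: cell death triggered by IL-1 beta plus TNF-alpha plus IFN-gamma mixture; protective hits raise ATP signal compared with cytokine alone wells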
Cytochrome P450 3A4 = Cytochrome P450 3A4 (Homo sapiens, UniProt P08684);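 also: CYP3A4 tested as one member of a cytochrome P450 panel screen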
Cytochrome P450 2C9 = Cytochrome P450 2C9 (Homo sapiens, UniProt P11712)
[3] = Trypanosoma cruzi growth suppression in host cells – NIH3T3 host cells, beta-gal luminescence, confirmation (AID 2044); type: functional, cell-based;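 also: intracellular parasites grown in NIH/3T3 mouse fibroblasts as host cells; luminescent beta-galactosidase reporter signal from transgenic T. cruzi replicating inside host cells; inhibitors lower the luminescence signal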
[4] = NIH3T3 cell viability loss – ATP luminescence, mouse fibroblasts, counter-screen, dose response (AID 2010); type: functional, cell-based;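 also: cells exposed to compound for about 90 hours before reading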
Cytochrome P450 2D6 = Cytochrome P450 2D6 (Homo sapiens, UniProt P10635);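 also: CYP2D6 member of a cytochrome P450 panel assay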
[5] = target: T4, Corticotropin-releasing factor receptor 2/Corticotropin-releasing factor-binding protein (Homo sapiens, UniProt P24387+Q13324); experiment: activators of CRF receptor 2 with binding protein – uHTS hits, confirmation (AID 602473); type: functional; conditions: read-out: EC50_Mean
T4 sequence (Q13324 whole entry): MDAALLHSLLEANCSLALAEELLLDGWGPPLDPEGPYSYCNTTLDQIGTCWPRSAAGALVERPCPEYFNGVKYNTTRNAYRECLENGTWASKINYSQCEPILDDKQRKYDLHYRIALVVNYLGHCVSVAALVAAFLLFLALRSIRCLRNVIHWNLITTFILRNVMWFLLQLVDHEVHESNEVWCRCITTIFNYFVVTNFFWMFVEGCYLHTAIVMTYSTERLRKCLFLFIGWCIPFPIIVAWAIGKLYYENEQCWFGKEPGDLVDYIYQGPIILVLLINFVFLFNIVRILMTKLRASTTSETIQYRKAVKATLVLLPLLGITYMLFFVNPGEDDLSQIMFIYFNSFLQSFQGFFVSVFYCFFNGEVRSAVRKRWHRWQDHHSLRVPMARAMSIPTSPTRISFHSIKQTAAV
T4 sequence (P24387 whole entry): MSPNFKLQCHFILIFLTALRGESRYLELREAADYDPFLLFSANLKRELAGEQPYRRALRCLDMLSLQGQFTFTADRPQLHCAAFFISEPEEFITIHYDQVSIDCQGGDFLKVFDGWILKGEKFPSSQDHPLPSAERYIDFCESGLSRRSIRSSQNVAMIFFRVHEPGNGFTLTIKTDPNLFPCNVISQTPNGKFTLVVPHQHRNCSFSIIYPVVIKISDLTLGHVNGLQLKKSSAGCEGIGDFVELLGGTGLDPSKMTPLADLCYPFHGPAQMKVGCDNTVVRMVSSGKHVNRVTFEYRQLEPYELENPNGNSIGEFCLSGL

[6] = viability of uninfected HEp-2 cells – cell-based, HTS, cytotoxicity control for RSV inhibitor project, dose response (AID 2410); type: functional; conditions: human respiratory syncytial virus

Chain of Cytochrome P450 2D6 (P10635 whole entry): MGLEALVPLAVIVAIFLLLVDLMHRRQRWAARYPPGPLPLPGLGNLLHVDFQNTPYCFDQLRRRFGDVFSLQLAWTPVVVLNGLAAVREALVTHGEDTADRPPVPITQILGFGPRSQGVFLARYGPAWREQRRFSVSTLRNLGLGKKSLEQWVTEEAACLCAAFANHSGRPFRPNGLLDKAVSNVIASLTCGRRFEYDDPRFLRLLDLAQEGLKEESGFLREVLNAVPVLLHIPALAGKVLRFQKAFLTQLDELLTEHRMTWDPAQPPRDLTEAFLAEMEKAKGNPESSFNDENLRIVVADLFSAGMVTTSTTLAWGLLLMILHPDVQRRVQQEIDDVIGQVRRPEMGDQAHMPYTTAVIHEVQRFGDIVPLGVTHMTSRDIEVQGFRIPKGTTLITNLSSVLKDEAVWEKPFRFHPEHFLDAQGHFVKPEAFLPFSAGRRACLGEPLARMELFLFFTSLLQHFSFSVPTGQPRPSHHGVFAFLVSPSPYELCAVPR
Chain of Cytochrome P450 2C19 (P33261 whole entry): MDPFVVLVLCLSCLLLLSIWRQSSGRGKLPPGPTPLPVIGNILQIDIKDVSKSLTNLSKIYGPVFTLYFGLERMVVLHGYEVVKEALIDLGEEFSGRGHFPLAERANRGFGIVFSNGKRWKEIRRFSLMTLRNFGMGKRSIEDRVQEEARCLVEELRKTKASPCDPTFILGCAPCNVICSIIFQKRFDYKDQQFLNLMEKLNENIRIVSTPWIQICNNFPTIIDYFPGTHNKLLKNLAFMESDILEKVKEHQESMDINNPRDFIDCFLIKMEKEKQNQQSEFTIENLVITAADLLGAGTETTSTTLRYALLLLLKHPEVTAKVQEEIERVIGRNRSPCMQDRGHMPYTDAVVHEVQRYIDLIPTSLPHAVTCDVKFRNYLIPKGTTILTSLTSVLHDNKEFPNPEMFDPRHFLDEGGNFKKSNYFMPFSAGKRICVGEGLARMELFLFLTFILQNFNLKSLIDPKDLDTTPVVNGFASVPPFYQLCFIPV
Chain of Cytochrome P450 3A4 (P08684 whole entry): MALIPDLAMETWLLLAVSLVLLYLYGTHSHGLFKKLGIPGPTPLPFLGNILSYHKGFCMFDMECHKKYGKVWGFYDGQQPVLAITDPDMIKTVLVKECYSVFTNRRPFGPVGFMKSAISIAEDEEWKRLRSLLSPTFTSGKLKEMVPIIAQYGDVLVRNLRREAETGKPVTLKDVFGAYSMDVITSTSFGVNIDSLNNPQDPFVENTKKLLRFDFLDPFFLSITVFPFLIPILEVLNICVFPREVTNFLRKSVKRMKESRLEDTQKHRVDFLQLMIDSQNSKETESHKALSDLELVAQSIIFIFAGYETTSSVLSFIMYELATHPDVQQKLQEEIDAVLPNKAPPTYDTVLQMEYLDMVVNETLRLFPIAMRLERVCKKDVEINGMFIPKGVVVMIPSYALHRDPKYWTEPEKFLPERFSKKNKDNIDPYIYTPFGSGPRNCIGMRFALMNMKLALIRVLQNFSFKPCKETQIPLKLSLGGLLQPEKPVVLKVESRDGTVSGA
Chain of Cytochrome P450 2C9 (P11712 whole entry): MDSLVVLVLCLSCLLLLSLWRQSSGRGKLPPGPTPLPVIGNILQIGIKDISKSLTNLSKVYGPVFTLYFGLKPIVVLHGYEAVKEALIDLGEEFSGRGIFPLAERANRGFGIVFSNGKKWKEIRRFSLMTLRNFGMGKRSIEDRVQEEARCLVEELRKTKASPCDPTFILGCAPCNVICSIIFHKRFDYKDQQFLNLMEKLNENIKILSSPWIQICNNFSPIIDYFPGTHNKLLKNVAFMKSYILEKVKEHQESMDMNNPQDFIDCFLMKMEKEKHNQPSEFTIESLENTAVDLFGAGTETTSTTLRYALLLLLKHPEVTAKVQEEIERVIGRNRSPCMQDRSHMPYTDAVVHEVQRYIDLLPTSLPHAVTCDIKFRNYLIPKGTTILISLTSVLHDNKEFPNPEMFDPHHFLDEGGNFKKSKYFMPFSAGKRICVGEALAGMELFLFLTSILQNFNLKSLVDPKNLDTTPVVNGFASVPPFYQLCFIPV

## NC1=NC2(CCCCCC2)n2c(nc3ccccc32)N1
Cytochrome P450 2C19
  AC50: 22.4 µM (inconclusive)
Cytochrome P450 1A2
  AC50: 28.2 µM (inconclusive)

## Nc1cc[n+](CC(=O)Nc2ccccc2)cc1
[1]
  EC50: > 260 µM (inactive)

## Cn1cnc([N+](=O)[O-])c1Sc1nc(N)nc2c1ncn2[C@H]1C[C@H](O)[C@@H](CO)O1
Cytochrome P450 1A2
  AC50: 6.31 µM (inconclusive)

## CC12CN(C(S)=Nc3ccccc3)CC(C)(CN(C(S)=Nc3ccccc3)C1)C2=O
[1]
  EC50: > 260 µM (inactive)

## CC(C)c1nnc(SCc2ccc(CSc3nnc(C(C)C)n3N)cc2)n1N
[1]
  EC50: > 260 µM (inactive)

## COc1cc(OC)c(N(C)S(=O)(=O)c2cccc(C(=O)Nc3nnc(C4CC4)s3)c2)cc1Cl
[1]
  EC50: 203 µM (active)

## COc1ccc(CN2CCNC(=O)C2CC(=O)NCC2CCOCC2)cc1C (configuration not stated)
[1]
  EC50: > 260 µM (inactive)

## CCCCCNCc1cccc(Br)c1
Cytochrome P450 1A2
  AC50: 15.8 µM (inconclusive)

## C=CCN(CC=C)C(=O)C1CCN(Cc2ccc(OCc3ccccc3)cc2)CC1
[2]
  IC50: 169 µM (active)

## COc1ccc(C2/C=C\CN(C(=O)C3CC3)[C@H](Cc3ccccc3)C(=O)N2Cc2ccc(F)cc2)cc1 (some centres not stated)
INS1
  AC50: 13.5 µM (active)

## O=C(Nc1nc(-c2ccccc2)cs1)c1ccc(Br)o1
Cytochrome P450 3A4
  AC50: 31.6 µM (inconclusive)
Cytochrome P450 2C9
  AC50: 11.2 µM (inconclusive)

## O=[N+]([O-])c1ccc(N2CCN(c3ccc(O)cc3)CC2)c(Cl)c1
[2]
  IC50: 45 µM (active)

## O=C(CCN1C(=O)c2ccccc2C1=O)Nc1sc2c(c1C(=O)NCC1CCCO1)CCC2 (configuration not stated)
[1]
  EC50: > 260 µM (inactive)

## CCOC(=O)C1(CCOc2ccccc2)CCN(Cc2cc(OC)c3c(c2)OCO3)CC1
[3]
  EC50: 2.65 µM (active)
[4]
  EC50: > 60 µM (not active)
[1]
  EC50: > 260 µM (inactive)

## CCOC(=O)N1CCN(C(=O)CCn2nc(-c3ccccc3)ccc2=O)CC1
Cytochrome P450 1A2
  AC50: 15.8 µM (inconclusive)

## Cc1ccc(NCc2ccco2)cc1C
[2]
  IC50: 123 µM (active)

## COc1ccc(Br)cc1CN(C)CC(=O)NCCc1ccccc1
[2]
  IC50: 95.5 µM (active)

## COc1ccc(NC(=O)N2CCC3(CC2)CCN(C(=O)c2ccco2)CC3)cc1
Cytochrome P450 1A2
  AC50: 20 µM (inconclusive)

## COC(=O)C1CC1C(NC(=O)[C@@H]1CCCN1)c1ccccc1 (some centres not stated)
Cytochrome P450 2C19
  AC50: 39.8 µM (inconclusive)
Cytochrome P450 2D6
  AC50: 20 µM (inconclusive)
Cytochrome P450 1A2
  AC50: 15.8 µM (inconclusive)

## CCOC(=O)C1CCCN(c2ncnc3c2cnn3-c2ccc(Cl)cc2)C1 (configuration not stated)
Cytochrome P450 2C19
  AC50: 22.4 µM (inconclusive)
[5]
  EC50: > 53 µM (inactive)
Cytochrome P450 3A4
  AC50: 25.1 µM (inconclusive)

## CCOC(=O)CSC1=NC(=O)/C(=C\c2ccc(Cl)cc2)S1
[6]
  CC50: 18.9 µM (active)
[1]
  EC50: 2.74 µM (active)
Cytochrome P450 2C19
  AC50: 3.16 µM (inconclusive)

## Cc1nn(Cc2ccccc2Cl)c(C)c1NC(=O)CCCn1nc([N+](=O)[O-])c(Cl)c1C
[3]
  EC50: 0.514 µM (active)
[4]
  EC50: > 60 µM (not active)
[1]
  EC50: > 260 µM (inactive)

## CN(C)C(=O)c1ccc(-c2cncnc2-n2ccnc2)cc1
Cytochrome P450 2D6
  AC50: 25.1 µM (inconclusive)
Cytochrome P450 3A4
  AC50: 10 µM (inconclusive)

## CCS(=O)(=O)N1CCc2nc(-c3ccccc3)sc2C1
[1]
  EC50: > 260 µM (inactive)

## CCN1CCCC1CNCC(=O)Nc1ccc(OC(F)(F)F)cc1 (configuration not stated)
[2]
  IC50: 115 µM (active)

## O=[N+]([O-])c1ccc(S(=O)(=O)N(Cc2cccnc2)Cc2cc3ccccc3nc2O)cc1
[3]
  EC50: 1.84 µM (active)
[4]
  EC50: > 60 µM (not active)
[1]
  EC50: > 260 µM (inactive)

## Cc1cc(-c2ccccc2)nc2c(Br)c(=O)[nH]n12
[2]
  IC50: 210 µM (active)

## Cc1ccccc1-c1nnc(CS(=O)(=O)c2ccccc2)o1
[1]
  EC50: > 260 µM (inactive)

## Oc1ccc(NC(S)=Nc2ccc(F)cc2)cc1
[2]
  IC50: 67.5 µM (active)

## c1ccc(Nc2nc(-c3ccoc3)nc3ccccc23)cc1
Cytochrome P450 2C19
  AC50: 31.6 µM (inconclusive)
Cytochrome P450 2D6
  AC50: 39.8 µM (inconclusive)
Cytochrome P450 3A4
  AC50: 20 µM (inconclusive)

## CN1CCN(Cc2coc3c(Cl)cc(Cl)cc3c2=O)CC1
[2]
  IC50: 79 µM (active)

## COc1ccc(S(=O)(=O)Nc2ccc3oc(C)c(C(C)=O)c3c2)cc1
INS1
  AC50: 6.13 µM (active)

## C=CCNC1=C(C(=O)CCC(=O)OC)C(=O)CC(C)(C)C1
Cytochrome P450 1A2
  AC50: 2.51 µM (inconclusive)

## COc1ccc(Nc2ccc3ccccc3c2)cc1
[2]
  IC50: 53.4 µM (active)

## O=C(CCCc1nc(-c2ccc(Cl)cc2)no1)NC1CCCC1
INS1
  AC50: 10.2 µM (active)

## O=C(O)C1CCCCC1C(=O)Nc1ccc(S(=O)(=O)N2CCOCC2)cc1 (configuration not stated)
[2]
  IC50: 150 µM (active)

## O=C1NC(=S)NC1=Cc1ccc(O)cc1
[2]
  IC50: 9.78 µM (active)

## C/N=C\c1cc(-c2ccccc2)sc1O
[2]
  IC50: 199 µM (active)

## Cc1ncc2c(c1O)COP(=O)(O)OC2
Cytochrome P450 2C19
  AC50: 5.01 µM (inconclusive)
Cytochrome P450 1A2
  AC50: 31.6 µM (inconclusive)
